Data from patent publication US8524674B2, “Method of improving the conditioned reflex habit, the muscle tonus, or the motion coordination of a patient after suffering trauma to the brain cortex” (Obschestvo S Ogranichennoi Otvetstvennostyu “Sia Peptides”, priority 2006, dated 2013).
“And” between values parts separate entries of the source, which are not always exact repeats. Identical values can stand only once. Residues, ends and D or L forms follow the SMILES beside them.

Key:
[1] = tested on: white mongrel male mice; settings: mouse, in vivo
Procedure: The study of acute toxicity was performed on 72 white mongrel male mice with body weight of 20-22 g. The animals were randomly subdivided into 6 equal groups. The substance was administered to the animals once, intramuscularly, in the doses of 1 mg/kg, 2 mg/kg, 3 mg/kg, 4 mg/kg, 5 mg/kg in 0.25 ml of sterile 0.9% NaCl solution. The control animals received 0.9% NaCl solution in the same volume.

[2] = tested on: white mongrel male rats; experiment: Study of sub-acute toxicity, 90 days; assay type: in vivo; settings: long-term administration, doses exceeding the therapeutic one by 100-1000 times
Procedure: The study of sub-acute toxicity was performed on 65 white mongrel male rats with body weight of 160-210 g. […] Morphology and properties of the animals' peripheral blood were studied before the administration of the substance, as well as on the 30th, 60th and 90th day after the beginning of the administration. Upon completion of the experiment biochemical and coagulologic indices of the blood were also evaluated.

[3] = tested on: brain cortex explants; experiment: Development of brain cortex explants (area index); assay type: cell-based, Wistar rats
Procedure: This study was performed on 32 fragments of brain cortex from Wistar rats with body weight of 150-200 g. Nutritional medium for explants cultivation consisted of 35% Eagle's solution, 25% calf fetal serum, 35% Hank's solution, 5% chicken embryonic extract, with the addition of glucose (0.6%), insulin (0.5 units/ml), penicillin (100 units/ml), glutamine (2 mM). […] Peptide H-Glu-Asp-Arg-OH was added into the medium, reaching ultimate concentration of 1, 10 and 100 ng/ml.
Area index (AI), i.e. the ratio of total explant area together with the growth zone to the initial area of brain cortex fragment served as the criterion of biologic activity. The statistical significance of the difference between the compared mean AI values was evaluated using Student's t-criterion. AI values were expressed in percent, control AI values being considered as 100%.

[4] = tested on: rats with heavy compression cranial trauma; experiment: Reparative processes in rat brain cortex after acute heavy cranial trauma (CAAR, rotating rod); assay type: in vivo, white mongrel rats
From the text: The effect of peptide H-Glu-Asp-Arg-OH on reparative processes in the brain was estimated on the pattern of acute heavy cranial trauma. The dynamics of central nervous system functions restoration were identified by testing motion coordination and muscle tonus of the animals, as well as their ability to learning and reproducing the conditioned reflex habit.
24 white mongrel rats were subjected to heavy compression cranial trauma from a falling leaden bob.
The estimation of the rats' ability to learn and reproduce the habits was performed using the test of conditioned active avoidance reflex (CAAR). Muscle tonus and motion coordination were tested by rotating the rats on a rod with increasing speed and measuring the time of their holding on to the rod.

[5] = tested on: rats with spinal cord trauma; experiment: Morphologic alterations in the central nervous system in spinal cord trauma; assay type: in vivo, Wistar rats
Procedure: The study was performed on mature Wistar rats of both sexes with body weight of 180-200 g. The experimental group of 27 rats was subjected to spinal cord trauma.
The animals were injured in the lumbar segment of the spinal cord according to the following method. The lateral surfaces of anesthetized rats' vertebrae on the level of the last rib were compressed through the skin using dressing forceps with a force of 15 kg on the working surfaces. In 24 hours after the trauma the surviving animals were subdivided into 2 groups.
The rats of the second group (control) received sterile physiological saline solution in the same volume.
Neurohistological studies were performed in the animals of both groups on the 30th day of the experiment. For this purpose spinal cord ganglia were taken from the spots of injury and above the injured spots, as well as lumbar and cervical segments of the spinal cord and motor cortex fragments and pyramid tracts of the brain. Neurohistological studies were performed using electronic and luminous microscopy.
The samples intended for luminous microscopy were fixed in 96% spirit and 10% formalin, then packed into celloidin with subsequent staining with hematoxylin-eosine, as well as staining by Nissle, Van Gison, Weigert, Spielmeyer. The samples were fixed and cut in accordance with conventional methods of histological processing and staining of the samples.
The samples intended for electronic microscopy were fixed by 2% osmic acid with cacodylate buffer, then packed in Epon 812 and contrasted in lead […] by Reynolds. The preliminary evaluation of the samples was performed using semifine sections. Ultrafine sections were studied using electronic microscope UEM-100SKh.

[6] = tested on: rat brain cortex in hypoxia; experiment: Free radical oxidation reactions in rat brain cortex in hypoxia; assay type: in vivo, white mongrel rats
Procedure: The study was performed on 18 white mongrel rats. Peptide H-Glu-Asp-Arg-OH was administered to the animals intraperitoneally, in the dose of 1 μg in 1.0 ml of sterile physiological 0.9% NaCl solution once a day for 10 days. 24 hours after the completion of peptide administration the animals were subjected to hypoxic hypoxia. Hypoxia was modeled in the altitude chamber of flow-ejector type, the atmosphere pressure in the chamber being 0.029 MPa, which corresponds to the altitude of 9000 m above sea level. Compression and decompression rate made 0.005 MPa per minute. Carbon dioxide and moisture absorbent was present in the altitude chamber. The animals were held in the chamber for 3 hours in the conditions of free conduct and under constant observation.
The intensity of peroxide lipid oxidation (POL) was estimated judging by the level of initial POL products, i.e. diene conjugates, and terminal products, i.e. Schiff's bases, playing a significant role in neurons damage. The level of protein peroxidation was estimated by the level of carbonyl derivative amino acids in proteins after interaction with 2,4-dinitrophenylhydrazine.

[7] = tested on: isolated neurons of Astacus leptodactilus crayfish; experiment: Life span of isolated crayfish neurons; assay type: cell-based; settings: 10 μg/ml
Procedure: Isolated neurons of Astacus leptodactilus crayfish for the in vitro study of peptide H-Glu-Asp-Arg-OH on their life span were extracted by axotomia, being regarded as a model of cell death by apoptosis.
Stretching receptor neurons of a crayfish closely resemble central neurons of vertebrals by their electrophysiological, biological and structure properties. They generate spikes with nearly constant rate during 10-15 hours. Two symmetrical neurons (control and experimental) extracted from the abdominal segment were placed into 2 ml chambers filled with Harreveld's solution. Neuronal potentials were registered extracellularly on the axons by fastened glass pipette electrodes, then amplified and recorded using H-338 recorder. At the same time the frequency of action potentials was registered using two-channel analog frequency meter and H-339 data recorders. In the beginning of the experiment impulse frequency of experimental and control neurons was set on the level of 10-15 Hz by the stretching of the muscle. After 1 hour of stabile spike generation with constant rate peptide H-Glu-Asp-Arg-OH in the concentration of 10 μg/ml was added into the experimental chamber. The activity of the neurons was constantly recorded before the spontaneous termination of spikes generation. Life span of neurons was compared for each couple. Altogether 10 couples of neurons were used.

[8] = tested on: patients with remote consequences of cranial trauma; experiment: Efficacy in patients with consequences of cranial trauma (clinical result, corrective test, EEG alpha index); assay type: in vivo; settings: patients of the main groups after treatment
Procedure: This study was performed on 25 patients aged 31-60 with remote consequences of cranial trauma, who were randomly subdivided into 2 groups. These patients sustained cranial traumas from 1 to 10 years ago. Main group patients were subdivided into 3 groups depending on the severity of their cranial trauma. Patients with the most severe consequences of cranial trauma received the pharmaceutical composition containing peptide H-Glu-Asp-Arg-OH once a day, intramuscularly, in the dose of 5.0 mg in 1 ml of sterile 0.9% NaCl solution for 10 days. Main group patients with cranial trauma consequences of intermediate severity were treated with the pharmaceutical composition containing peptide H-Glu-Asp-Arg-OH once a day, intramuscularly, in the dose of 10.0 μg in 1 ml of sterile 0.9% NaCl solution for 10 days. Main group patients with mild consequences of cranial trauma received the pharmaceutical composition containing peptide H-Glu-Asp-Arg-OH once a day, intramuscularly, in the dose of 1.0 μg in 1.0 ml of sterile 0.9% NaCl solution for 10 days.
The efficacy of the pharmaceutical composition containing H-Glu-Asp-Arg-OH peptide was estimated judging by the effect on integral function of the brain, i.e., attention, and on bioelectric activity of the brain using the corrective test and electroencephalogram.
The evaluation of the effect of pharmaceutical composition containing peptide H-Glu-Asp-Arg-OH on bioelectric activity of the brain was performed by means of calculating the alpha index before and after the treatment.

[9] = tested on: male guinea pigs; settings: guinea pig, in vivo
Procedure: (§1) The studies of chronic toxicity were conducted for 6 months, basing on the term of recommended clinical administration of the substance, on 84 male guinea pigs with body weight of 270-310 g. Experimental animals received the peptide daily, once a day, intramuscularly, for 6 months in the doses of 1 μg/kg, 0.1 mg/kg, 1 mg/kg in 0.5 ml of sterile 0.9% NaCl solution. Control animals received sterile 0.9% NaCl solution in the same volume and by the same schedule. Traditional methods were used for the evaluation of the following indices of the animals' peripheral blood: the quantity of erythrocytes, hemoglobin, reticulocytes, thrombocytes, leukocytes, leukocyte formula, erythrocyte sedimentation rate (ESR), erythrocyte resistance. Alongside with that, the content of total protein in the serum was identified using Lowry's method, as well as potassium and sodium content using the method of plasma spectrophotometry. After the completion of the experiment pathomorphologic studies of animal brain and spinal cord, spinal cord ganglia, thyroid gland, parathyroid glands, adrenal glands, testis, pituitary body, heart, lungs, aorta, liver, kidneys, urinary bladder, pancreas, stomach, small intestine, large intestine, thymus, spleen, lymph nodes and bone marrow were performed.

[10] = tested on: male guinea pigs; experiment: Study of chronic toxicity, 6 months; settings: guinea pig, in vivo
Procedure: as §1

[11] = 10 μg/kg intramuscularly daily for 10 days, 30th day
[12] = 1 μg intraperitoneally once a day for 10 days, then hypoxia

Which results are given for `N=C(N)NCCC[C@H](NC(=O)[C@H](CC(=O)O)NC(=O)[C@@H](N)CCC(=O)O)C(=O)O` [peptide H-Glu-Asp-Arg-OH, glutamyl-aspartyl-arginine] (H-Glu-Asp-Arg-OH)?
toxic reactions [1]: does not cause toxic reactions; side effects, subacute toxicity [2]: absence of any side effects; Area index (AI) growth as compared to the control ([3]; 10 ng/ml, 3rd day of cultivation, statistically significant): 37%; neurites stimulation of cortex explants ([3]; after 7 days of cultivating, same concentrations): same effects of neurites stimulation; time of holding on to the rod relative to the control (rotating rod test) ([4]; 48 hours after the trauma, 10 μg/kg intramuscularly): more than 2 times; number of animals capable of learning relative to the control ([4]; 96 hours after the trauma, 10 μg/kg intramuscularly, CAAR test): 2 times; indices of the animals' learning ability ([4]; by the 14th day after the trauma): close to normal values; indices of learning ability ([4]; in 30 days, 10 μg/kg intramuscularly): higher than in the control; alterations in nerve cells and outgrowths of upper spinal cord segments [5, 11]: less pronounced; neuronal cell cytoplasm, electronic microscopy [5, 11]: signs of restoration in the neuronal cells cytoplasm; type of neuronal alterations in the spinal cord at the injury spot ([5]; 10 μg/kg intramuscularly daily for 10 days, 30th day, luminous microscopy, control showed much more heavy and ischemic alterations): mainly “primarily irritated” cells; effect on spinal cord neurons regeneration ([5]; animals with spinal cord trauma): stimulating effect on spinal cord neurons regeneration; Diene conjugates [6, 12]: 28.57 ± 1.84 nmole/g of tissue; Level of proteins peroxidation [6, 12]: 4.68 ± 0.07 μmole/mg of protein; Schiff's bases [6, 12]: 255.4 ± 26.8 conv. units/g of tissue; change in Schiff's bases content ([6]; hypoxia, vs control): tendency towards a decrease; change in the level of diene conjugates ([6]; hypoxia, vs control): statistically significant decrease; protein peroxidation ([6]; hypoxia, vs control): inhibited protein peroxidation; Life span of isolated crayfish neurons ([7]; control 11.9 hours): 13.7 h and 13.7 ± 0.2 h; prolongation of the life span of isolated neurons ([7]; vs control): 15%; Number of mistakes (corrective test) ([8]; before treatment 12.6 ± 1.3): 6.4 ± 1.1; Alpha index (EEG) ([8]; before treatment 35.7 ± 4.6): 47.9 ± 3.1; Number of registered signs (corrective test) ([8]; before treatment 1519.1 ± 141.7): 2429.6 ± 105.3; changes in blood morphology and biochemical indices [9]: no statistically significant changes; side effects, chronic toxicity [9]: absence of any side effects; pathologic alterations in the organism (general status, blood indices, organ morphology, cardiovascular, respiratory, liver and kidney functions) [10]: no pathologic alterations
